ChEMBL document CHEMBL1909046, “DrugMatrix in vitro pharmacology data”

Columns and labels:
[1] = target: T1, Alpha-1D adrenergic receptor (Homo sapiens, UniProt P25100); format: cell membranes, HEK293, Membrane; details: hek293; further: in other assays of this panel Not Active means under 50% inhibition at 10 µM
T1 sequence (P25100 whole entry): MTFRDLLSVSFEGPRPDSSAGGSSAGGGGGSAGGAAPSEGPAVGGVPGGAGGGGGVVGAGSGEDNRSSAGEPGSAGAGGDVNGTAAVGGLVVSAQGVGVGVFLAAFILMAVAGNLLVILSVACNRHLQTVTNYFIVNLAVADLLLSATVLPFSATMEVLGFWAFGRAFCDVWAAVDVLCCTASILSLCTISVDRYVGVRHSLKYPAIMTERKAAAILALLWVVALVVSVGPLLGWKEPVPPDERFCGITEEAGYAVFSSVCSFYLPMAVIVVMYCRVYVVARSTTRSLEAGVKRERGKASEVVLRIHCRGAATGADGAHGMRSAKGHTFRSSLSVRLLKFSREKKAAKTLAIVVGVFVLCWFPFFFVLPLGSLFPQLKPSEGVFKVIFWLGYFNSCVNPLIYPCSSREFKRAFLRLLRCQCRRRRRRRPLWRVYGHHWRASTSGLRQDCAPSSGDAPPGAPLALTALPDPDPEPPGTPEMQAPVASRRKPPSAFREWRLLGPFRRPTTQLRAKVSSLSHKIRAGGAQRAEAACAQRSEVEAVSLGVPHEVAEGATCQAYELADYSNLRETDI

[2] = target: Beta-3 adrenergic receptor (Homo sapiens, UniProt P13945); test: DRUGMATRIX: Adrenergic beta3 radioligand binding (ligand: [125I] Cyanopindolol); format: cell membranes, HEK293, Membrane; details: Not Active = under 50% inhibition at 10 µM
[3] = target: Sigma non-opioid intracellular receptor 1 (Homo sapiens, UniProt Q99720); test: DRUGMATRIX: Sigma1 radioligand binding (ligand: [3H] Haloperidol); format: cell membranes, Jurkat, Membrane; details: jurkat; Not Active = under 50% inhibition at 10 µM
[4] = target: T2, Cholecystokinin receptor type A (Homo sapiens, UniProt P32238); format: cell membranes, Membrane; details: 1321-n1; further: in other assays of this panel Not Active means under 50% inhibition at 10 µM
T2 sequence (P32238 whole entry): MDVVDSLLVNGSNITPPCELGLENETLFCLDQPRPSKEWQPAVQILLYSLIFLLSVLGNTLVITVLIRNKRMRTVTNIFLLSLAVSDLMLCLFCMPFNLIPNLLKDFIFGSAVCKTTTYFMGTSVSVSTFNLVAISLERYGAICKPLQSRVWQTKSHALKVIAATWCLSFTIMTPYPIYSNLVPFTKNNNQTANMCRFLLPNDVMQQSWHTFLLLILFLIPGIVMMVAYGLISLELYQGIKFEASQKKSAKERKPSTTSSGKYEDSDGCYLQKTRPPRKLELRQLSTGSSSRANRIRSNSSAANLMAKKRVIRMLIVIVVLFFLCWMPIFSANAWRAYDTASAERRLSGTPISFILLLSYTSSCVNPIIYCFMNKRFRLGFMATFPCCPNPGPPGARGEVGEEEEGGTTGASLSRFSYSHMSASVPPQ

[5] = target: T3, 3-hydroxy-3-methylglutaryl-coenzyme A reductase (Homo sapiens, UniProt P04035); design: species or system Escherichia coli;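 further: enzyme inhibition assay of HMG-CoA reductase using radiolabeled [14C]HMG-CoA as substrate; in other assays of this panel Not Active means under 50% inhibition at 10 µM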
T3 sequence (P04035 whole entry): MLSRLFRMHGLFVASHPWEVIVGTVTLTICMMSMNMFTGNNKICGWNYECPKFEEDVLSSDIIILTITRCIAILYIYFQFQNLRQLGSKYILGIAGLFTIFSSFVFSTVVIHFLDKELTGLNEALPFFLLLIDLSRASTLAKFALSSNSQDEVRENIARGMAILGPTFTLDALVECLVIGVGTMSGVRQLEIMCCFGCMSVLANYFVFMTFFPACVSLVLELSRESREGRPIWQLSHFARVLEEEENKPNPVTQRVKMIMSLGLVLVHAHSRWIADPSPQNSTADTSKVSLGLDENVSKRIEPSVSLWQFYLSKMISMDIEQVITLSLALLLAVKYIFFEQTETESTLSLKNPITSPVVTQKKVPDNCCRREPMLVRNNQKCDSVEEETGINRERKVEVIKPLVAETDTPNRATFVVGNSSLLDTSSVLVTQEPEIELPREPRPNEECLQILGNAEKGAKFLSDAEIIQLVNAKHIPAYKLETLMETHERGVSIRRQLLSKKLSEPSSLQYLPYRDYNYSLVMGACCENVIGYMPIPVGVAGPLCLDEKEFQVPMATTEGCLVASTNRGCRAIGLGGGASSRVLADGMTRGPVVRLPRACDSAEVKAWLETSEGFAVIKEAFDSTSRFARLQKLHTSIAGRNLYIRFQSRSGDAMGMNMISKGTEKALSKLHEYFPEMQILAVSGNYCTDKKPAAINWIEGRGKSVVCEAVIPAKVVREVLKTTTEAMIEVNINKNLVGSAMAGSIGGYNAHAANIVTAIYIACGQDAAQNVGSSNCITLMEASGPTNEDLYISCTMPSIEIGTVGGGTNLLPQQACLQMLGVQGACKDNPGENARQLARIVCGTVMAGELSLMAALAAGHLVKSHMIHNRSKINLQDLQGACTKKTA

Leukotriene C4 synthase = target: T4, Leukotriene C4 synthase (Cavia porcellus, UniProt A6XA80); test: biochemical; format: tissue-based, Lung;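 further: enzyme inhibition assay of leukotriene C4 synthase, using LTA4 as the substrate; in other assays of this panel Not Active means under 50% inhibition at 10 µM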
T4 sequence (A6XA80 whole entry): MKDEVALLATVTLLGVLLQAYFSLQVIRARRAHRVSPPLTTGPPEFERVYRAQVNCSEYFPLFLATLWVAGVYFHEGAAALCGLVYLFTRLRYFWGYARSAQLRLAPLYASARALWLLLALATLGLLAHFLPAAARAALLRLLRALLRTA

[6] = target: Tyrosine-protein kinase Lck (Homo sapiens, UniProt P06239); test: DRUGMATRIX: Protein Tyrosine Kinase, LCK enzyme inhibition (substrate: Poly(Glu:Tyr)); format: cell-based, Insect cells; details: insect cells; Not Active = under 50% inhibition at 10 µM
Sequence of Tyrosine-protein kinase Lck (P06239 whole entry): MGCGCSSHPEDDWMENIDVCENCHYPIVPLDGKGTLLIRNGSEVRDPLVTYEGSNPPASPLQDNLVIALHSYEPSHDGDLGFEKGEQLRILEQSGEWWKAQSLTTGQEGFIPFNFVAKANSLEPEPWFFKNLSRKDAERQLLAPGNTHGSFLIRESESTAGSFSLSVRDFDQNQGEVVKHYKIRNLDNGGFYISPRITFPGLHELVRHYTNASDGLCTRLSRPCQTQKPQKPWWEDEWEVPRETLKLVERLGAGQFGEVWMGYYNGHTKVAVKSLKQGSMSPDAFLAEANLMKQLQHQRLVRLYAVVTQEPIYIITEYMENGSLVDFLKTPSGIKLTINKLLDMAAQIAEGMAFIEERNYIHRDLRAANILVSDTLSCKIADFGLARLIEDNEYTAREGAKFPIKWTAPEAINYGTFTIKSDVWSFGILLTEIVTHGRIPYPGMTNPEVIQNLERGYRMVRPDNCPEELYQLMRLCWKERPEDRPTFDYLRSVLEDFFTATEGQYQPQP

Sequence of Sigma non-opioid intracellular receptor 1 (Q99720 whole entry): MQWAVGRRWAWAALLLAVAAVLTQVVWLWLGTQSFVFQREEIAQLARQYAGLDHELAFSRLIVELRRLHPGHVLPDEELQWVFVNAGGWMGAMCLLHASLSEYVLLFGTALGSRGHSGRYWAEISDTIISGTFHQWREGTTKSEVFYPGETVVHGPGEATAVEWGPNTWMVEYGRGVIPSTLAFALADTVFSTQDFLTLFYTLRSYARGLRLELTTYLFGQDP
Sequence of Beta-3 adrenergic receptor (P13945 whole entry): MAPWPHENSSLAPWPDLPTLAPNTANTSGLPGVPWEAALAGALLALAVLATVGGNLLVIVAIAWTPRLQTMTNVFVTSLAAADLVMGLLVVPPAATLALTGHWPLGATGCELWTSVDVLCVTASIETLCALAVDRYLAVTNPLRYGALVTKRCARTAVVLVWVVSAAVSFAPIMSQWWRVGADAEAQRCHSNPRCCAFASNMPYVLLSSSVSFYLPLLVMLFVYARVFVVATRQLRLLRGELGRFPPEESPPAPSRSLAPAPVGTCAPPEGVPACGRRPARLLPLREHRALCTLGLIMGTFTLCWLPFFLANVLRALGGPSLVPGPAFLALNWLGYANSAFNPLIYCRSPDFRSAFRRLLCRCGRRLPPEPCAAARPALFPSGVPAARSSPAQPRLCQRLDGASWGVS

Compound | IC50 [1] | Ki [1] | IC50 ([2]; hek293) | Ki ([2]; hek293) | IC50 [3] | Ki [3] | IC50 [4] | Ki [4] | IC50 [5] | Ki [5] | IC50 (Leukotriene C4 synthase) | Ki (Leukotriene C4 synthase) | IC50 [6] | Ki [6] | IC50 ([2]; read-out: IC50) [µM] | Ki ([2]; read-out: Ki) [µM]
COPPER(II) OXIDE | Not Active | Not Active | Not Active | Not Active | Not Active | Not Active | Not Active | Not Active | Not Active | Not Active | Not Active | Not Active | Not Active | Not Active | – | –
CN(CCOc1ccc(C[C@H](Nc2ccccc2C(=O)c2ccccc2)C(=O)O)cc1)c1ccccn1 | Not Active | – | – | – | Not Active | – | Not Active | – | Not Active | – | Not Active | – | Not Active | – | 22.1 | 16.6
COc1cc([C@@H]2c3cc4c(cc3[C@H](O)[C@H]3COC(=O)[C@H]23)OCO4)cc(OC)c1OC [PODOFILOX] | Not Active | – | Not Active | – | Not Active | – | Not Active | – | Not Active | – | Not Active | – | Not Active | – | – | –
ClC1=C(Cl)[C@]2(Cl)[C@@H]3[C@@H]4C[C@@H]([C@H]5O[C@@H]45)[C@@H]3[C@@]1(Cl)C2(Cl)Cl [DIELDRIN] | Not Active | – | Not Active | – | Not Active | – | Not Active | – | Not Active | – | Not Active | – | Not Active | – | – | –
CCN1CCN(c2cc3c(cc2F)c(=O)c(C(=O)O)cn3C2CC2)CC1 [ENROFLOXACIN] | Not Active | – | Not Active | – | Not Active | – | Not Active | – | Not Active | – | Not Active | – | Not Active | – | – | –
C[C@H]1C[C@H]2[C@@H]3CCC4=CC(=O)C=C[C@]4(C)[C@@]3(F)[C@@H](O)C[C@]2(C)[C@@]1(O)C(=O)CO [BETAMETHASONE] | Not Active | – | Not Active | – | Not Active | – | Not Active | – | Not Active | – | Not Active | – | Not Active | – | – | –
OC[C@H]1O[C@@H]2O[C@H]3[C@H](O)[C@@H](O)[C@@H](O[C@H]4[C@H](O)[C@@H](O)[C@@H](O[C@H]5[C@H](O)[C@@H](O)[C@@H](O[C@H]6[C@H](O)[C@@H](O)[C@@H](O[C@H]7[C@H](O)[C@@H](O)[C@@H](O[C@H]8[C@H](O)[C@@H](O)[C@@H](O[C@H]1[C@H](O)[C@H]2O)O[C@@H]8CO)O[C@@H]7CO)O[C@@H]6CO)O[C@@H]5CO)O[C@@H]4CO)O[C@@H]3CO [BETADEX] | Not Active | – | Not Active | – | Not Active | – | Not Active | – | Not Active | – | Not Active | – | Not Active | – | – | –
c1ccc(Cn2ccnc2)cc1 | Not Active | – | Not Active | – | Not Active | – | Not Active | – | Not Active | – | Not Active | – | Not Active | – | – | –
C=CCN1CC[C@]23c4c5ccc(O)c4O[C@H]2/C(=N/N=C2\CC[C@@]4(O)[C@H]6Cc7ccc(O)c8c7[C@@]4(CCN6CC=C)[C@H]2O8)CC[C@@]3(O)[C@H]1C5 [NALOXONAZINE] | Not Active | – | Not Active | – | Not Active | – | Not Active | – | Not Active | – | Not Active | – | Not Active | – | – | –
CCCCCCNC(=O)n1cc(F)c(=O)[nH]c1=O [CARMOFUR] | Not Active | – | Not Active | – | Not Active | – | Not Active | – | Not Active | – | Not Active | – | Not Active | – | – | –
OC[C@H]1O[C@@H]2O[C@H]3[C@H](O)[C@@H](O)[C@@H](O[C@H]4[C@H](O)[C@@H](O)[C@@H](O[C@H]5[C@H](O)[C@@H](O)[C@@H](O[C@H]6[C@H](O)[C@@H](O)[C@@H](O[C@H]7[C@H](O)[C@@H](O)[C@@H](O[C@H]1[C@H](O)[C@H]2O)O[C@@H]7CO)O[C@@H]6CO)O[C@@H]5CO)O[C@@H]4CO)O[C@@H]3CO [ALFADEX] | Not Active | – | Not Active | – | Not Active | – | Not Active | – | Not Active | – | Not Active | – | Not Active | – | – | –
CC(C)NCC(O)COc1ccc(CC(N)=O)cc1 (configuration not stated) [ATENOLOL] | Not Active | – | Not Active | – | Not Active | – | Not Active | – | Not Active | – | Not Active | – | Not Active | – | – | –
